From patent publication US10766928B2, “Targeted conformationally-constrained kinked endosomal disrupting peptides” (priority 2012, dated 2020)
≈ marks a conversion by molar mass, not a printed value. Read-outs that look alike come from different tables or passages of the source. Non-standard residues stand in square brackets, D forms with d. Residues, ends and D or L forms follow the SMILES beside them. *: point of attachment. Pentanoyl(5-NH-cholesteryl) = CC(C)CCC[C@@H](C)[C@H]1CC[C@H]2[C@@H]3CC=C4C[C@@H](NCCCCC(=O)*)CC[C@]4(C)[C@H]3CC[C@]12C; Cholesteryloxycarbonyl = CC(C)CCC[C@@H](C)[C@H]1CC[C@H]2[C@@H]3CC=C4C[C@@H](OC(=O)*)CC[C@]4(C)[C@H]3CC[C@]12C; PEG3 = NCCOCCOCCOCCC(=O)O; Pra = C#CC[C@H](N)C(=O)O; Aib = CC(C)(N)C(=O)O; Ahx = NCCCCCC(=O)O; βAla = NCCC(=O)O

How the values were obtained:
[1] = system: endosomes of Jurkat lymphocytes; assay: Endosome disruption in Jurkat lymphocytes: release of carboxyfluorescein from disulfide probe Compound 2, flow cytometry; settings: for Efficacy (% of max. 1): % change in cellular fluorescence relative to maximal response of Compound 1 (100%); for Efficacy (% of 1): % of the effect of compound 1, calculated span of dose-response curve, ± standard deviation
Experimental: (§1) The effects of the compounds of the invention on human Juikat leukemia cells were evaluated using flow cytometry-based assays of potency, efficacy, and toxicity. […] Analysis of flow cytometry data by non-linear regression was used to determine IC50 values for potency with the efficacy expressed as a percentage. […] Dose-dependent effects on cellular viability after 48 h at 37° C. in culture were also measured by flow cytometry.
(§2) The # represents the compound number in accordance with Tables A, B, and C. Concentrations of compound stock solutions were determined by absorbance measurements at 280 nm. Efficacy was determined as % change in cellular fluorescence relative to the maximal response of Compound 1, defined as 100%. Potencies and efficacies in Jurkat lymphocytes were measured by flow cytometry after treatment of cells with the compounds listed and the fluorescent probe Compound 2 (2.5 μM) for 14 hours. Toxicity to this cell line was determined by flow cytometry analysis of light scattering and counterstaining with PI after treatment for 48 h at 37° C. in culture. […] N.D., not determined.
Cells were treated with fluorescent molecular probe Compound 2 (2.5 μM) and endosome disruptors for 14 hours at 37° C. Enhanced cellular fluorescence resulting from release of the pH-sensitive fluorophore Compound 3 into the cytoplasm was quantified by flow cytometry.
Natural amino acids are represented by single letter codes. Codes for non-standard elements are as follows: Ch1: (3β-Cholest-5-en-3-yl-ammonio)pentanoyl; Ch2: (Cholester-3-yl)oxy-βAla-βAla; X: ε-Ahx; U: Aib; PB: Pacific Blue fluorophore. O: 3-(2-(2-(2-aminoethoxy)ethoxy)ethoxy)propanyl.

[2] = Thermodynamic solubility in PBS (pH 7.4); type: physicochemical; settings: phosphate buffered saline
Description: Values in parentheses represent 95% confidence intervals. N.D., not determined.
Measurements represent duplicate or more replicates, with active peptides subjected to multiple replicates. ND: not determined. The peptide was non-toxic and soluble in cell culture medium at this concentration.

Jurkat lymphocytes = system: Jurkat lymphocytes
Experimental: as §1, §2

[3] = read-out: Potency (EC50), Table 1, Jurkat lymphocytes, probe Compound 2 (2.5 μM), 14 hours, 95% confidence interval in neighbouring cell
[4] = pH 7.4, Table 1, PBS pH 7.4, 24 hours at 22° C., ±S.D., read-out: Solubility (aq.)
[5] = read-out: Potency, Table 2, EC50 ± standard deviation, Jurkat lymphocytes, disulfide-linked fluorescent probe (2.5 μM), 14 h
[6] = pH 7.4, Table 3, PBS pH 7.4, 24 h at 22° C., read-out: Solubility
[7] = read-out: Toxicity, Table 3, IC50, Jurkat, 48 h at 37° C., footnote a: non-toxic and soluble in cell culture medium at this concentration

| Compound | Efficacy (% of max. 1) ([1]; Table 1, Jurkat, 14 hours) | EC50 [1, 3] | EC50 ([1]; 14 h) | IC50 (Jurkat lymphocytes; 48 h) | other results |
| --- | --- | --- | --- | --- | --- |
| CC(=O)NC(C)(C)C(=O)NC(C)(C)C(=O)NC(C)(C)C(=O)NC(C)(C)C(=O)N[C@@H](Cc1c[nH]c2ccccc12)C(=O)N[C@@H](Cc1c[nH]c2ccccc12)C(=O)N[C@@H](C)C(=O)N[C@@H](Cc1ccc(O)cc1)C(=O)N[C@@H](Cc1c[nH]c2ccccc12)C(=O)N1CCC[C@H]1C(=O)N1CCC[C@H]1C(=O)N[C@H](C(=O)N[C@@H](C)C(N)=O)C(C)C [Compound 42] (Ac-[Aib][Aib][Aib][Aib]WWAYWPPVA-NH2) | 85% | 5.3 µM |  |  | solubility thermodynamic at 24 h [2, 4]: 11 ± 1 µM (≈ 17.1 µg/mL); IC50 (Jurkat lymphocytes; read-out: Toxicity (IC50), Table 1, Jurkat lymphocytes, 48 h at 37° C.): > 100 µM |
| C#CC[C@H](NC(=O)[C@H](CCC(=O)O)NC(=O)[C@H](CCC(=O)O)NC(=O)CCNC(=O)CCNC(=O)O[C@H]1CC[C@@]2(C)C(=CC[C@H]3[C@@H]4CC[C@H]([C@H](C)CCCC(C)C)[C@@]4(C)CC[C@@H]32)C1)C(=O)NCCOCCOCCOCCC(=O)NCCOCCOCCOCCC(=O)NC(C)(C)C(=O)NC(C)(C)C(=O)NC(C)(C)C(=O)NC(C)(C)C(=O)N[C@@H](Cc1ccc(O)cc1)C(=O)N[C@@H](Cc1ccc(O)cc1)C(=O)N[C@@H](C)C(=O)N[C@@H](Cc1ccc(O)cc1)C(=O)N[C@@H](Cc1ccc(O)cc1)C(=O)N1CCC[C@H]1C(=O)N1CCC[C@H]1C(=O)N[C@H](C(=O)N[C@H](C(N)=O)C(C)C)C(C)C [Compound 38, R″ = BEEZOOUUUUYYAYYPPVV-CONH2] ({Cholesteryloxycarbonyl-βAla-βAla}-EE[Pra][PEG3][PEG3][Aib][Aib][Aib][Aib]YYAYYPPVV-NH2) |  |  | 0.04 µM | 8 µM | IC50 ([1]; 14 h): 0.04 µM; Selectivity for disruption of endosomes over toxicity to cells in culture ([1]; Jurkat, toxicity after 48 hours): greater than hundredfold; solubility thermodynamic at 24 h [2, 4]: 1060 ± 19 µM (≈ 2950 µg/mL) |
| CC(C)CCC[C@@H](C)[C@H]1CC[C@H]2[C@@H]3CC=C4C[C@@H](NCCCCC(=O)NCCC(=O)N[C@@H](CCC(=O)O)C(=O)N[C@@H](CCC(=O)O)C(=O)NCCOCCOCCOCCC(=O)NCCOCCOCCOCCC(=O)NC(C)(C)C(=O)NC(C)(C)C(=O)NC(C)(C)C(=O)NC(C)(C)C(=O)N[C@@H](Cc5c[nH]c6ccccc56)C(=O)N[C@@H](Cc5c[nH]c6ccccc56)C(=O)N[C@@H](C)C(=O)N[C@@H](Cc5ccc(O)cc5)C(=O)N[C@@H](Cc5c[nH]c6ccccc56)C(=O)N5CCC[C@H]5C(=O)N5CCC[C@H]5C(=O)N[C@H](C(=O)N[C@@H](C)C(N)=O)C(C)C)CC[C@]4(C)[C@H]3CC[C@]12C [Compound 26, R = BEEOOUUUUWWAYWPPVA-CONH2] ({Pentanoyl(5-NH-cholesteryl)-βAla}-EE[PEG3][PEG3][Aib][Aib][Aib][Aib]WWAYWPPVA-NH2) |  |  | 0.1 µM | 8 µM | solubility at 24 h ([2]; Table 1, PBS pH 7.4, 24 hours at 22° C., ±S.D., read-out: Solubility (aq.)): 14 µM (≈ 38.1 µg/mL) |
| CC(C)[C@H](NC(=O)[C@@H](NC(=O)[C@@H]1CCCN1C(=O)[C@@H]1CCCN1C(=O)[C@H](Cc1c[nH]c2ccccc12)NC(=O)[C@H](Cc1c[nH]c2ccccc12)NC(=O)[C@H](C)NC(=O)[C@H](Cc1c[nH]c2ccccc12)NC(=O)[C@H](Cc1ccc(O)cc1)NC(=O)C(C)(C)NC(=O)C(C)(C)NC(=O)C(C)(C)NC(=O)C(C)(C)N)C(C)C)C(N)=O [Compound 52] (H-[Aib][Aib][Aib][Aib]YWAWWPPVV-NH2) | 87% | 1.9 µM |  |  | Efficacy (% of 1) ([1]; Table 2, Jurkat, 14 h): 105 ± 19%; EC50 [1, 5]: 3.2 ± 1.4 µM; solubility thermodynamic at 24 h [2, 6]: 21 ± 1 µM (≈ 32.4 µg/mL); IC50 (Jurkat lymphocytes; [7]): > 16 µM |
| CC(C)[C@H](NC(=O)[C@@H](NC(=O)[C@@H]1CCCN1C(=O)[C@@H]1CCCN1C(=O)[C@H](Cc1c[nH]c2ccccc12)NC(=O)[C@H](Cc1c[nH]c2ccccc12)NC(=O)[C@H](C)NC(=O)[C@H](Cc1ccc(O)cc1)NC(=O)[C@H](Cc1c[nH]c2ccccc12)NC(=O)C(C)(C)NC(=O)C(C)(C)NC(=O)C(C)(C)NC(=O)C(C)(C)N)C(C)C)C(N)=O [Compound 53] (H-[Aib][Aib][Aib][Aib]WYAWWPPVV-NH2) | 104% | 7.1 µM |  |  | Efficacy (% of 1) ([1]; Table 2, Jurkat, 14 h): 96 ± 12%; EC50 [1, 5]: 6.7 ± 0.8 µM; solubility thermodynamic at 24 h [2, 6]: 29 ± 3 µM (≈ 44.7 µg/mL); IC50 (Jurkat lymphocytes; [7]): > 16 µM |
| CC(C)CCC[C@@H](C)[C@H]1CC[C@H]2[C@@H]3CC=C4C[C@@H](NCCCCC(=O)NCCC(=O)N[C@@H](CCC(=O)O)C(=O)N[C@@H](CCC(=O)O)C(=O)NCCCCCC(=O)NCCCCCC(=O)NC(C)(C)C(=O)NC(C)(C)C(=O)NC(C)(C)C(=O)NC(C)(C)C(=O)N[C@@H](Cc5ccc(O)cc5)C(=O)N[C@@H](Cc5ccc(O)cc5)C(=O)N[C@@H](C)C(=O)N[C@@H](Cc5ccc(O)cc5)C(=O)N[C@@H](Cc5ccc(O)cc5)C(=O)N5CCC[C@H]5C(=O)N5CCC[C@H]5C(=O)N[C@H](C(=O)N[C@@H](C)C(N)=O)C(C)C)CC[C@]4(C)[C@H]3CC[C@]12C [Compound 23, R = BEEXXUUUUYYAYYPPVA-CONH2] ({Pentanoyl(5-NH-cholesteryl)-βAla}-EE[Ahx][Ahx][Aib][Aib][Aib][Aib]YYAYYPPVA-NH2) |  |  | 0.1 µM | 4 µM |  |
| CC(C)CCC[C@@H](C)[C@H]1CC[C@H]2[C@@H]3CC=C4C[C@@H](NCCCCC(=O)NCCC(=O)N[C@@H](CCC(=O)O)C(=O)N[C@@H](CCC(=O)O)C(=O)NCCCCCC(=O)NC(C)(C)C(=O)NC(C)(C)C(=O)N[C@@H](Cc5c[nH]c6ccccc56)C(=O)N[C@@H](Cc5c[nH]c6ccccc56)C(=O)N[C@@H](C)C(=O)N[C@@H](Cc5ccc(O)cc5)C(=O)N[C@@H](Cc5c[nH]c6ccccc56)C(=O)N5CCC[C@H]5C(=O)N5CCC[C@H]5C(=O)N[C@H](C(=O)N[C@@H](C)C(N)=O)C(C)C)CC[C@]4(C)[C@H]3CC[C@]12C [Compound 10, R = BEEXUUWWAYWPPVA-CONH2] ({Pentanoyl(5-NH-cholesteryl)-βAla}-EE[Ahx][Aib][Aib]WWAYWPPVA-NH2) |  |  | 0.9 µM | 15 µM |  |
| CC(C)CCC[C@@H](C)[C@H]1CC[C@H]2[C@@H]3CC=C4C[C@@H](NCCCCC(=O)NCCC(=O)N[C@@H](CCC(=O)O)C(=O)N[C@@H](CCC(=O)O)C(=O)NCCCCCC(=O)NC(C)(C)C(=O)NC(C)(C)C(=O)NC(C)(C)C(=O)N[C@@H](Cc5c[nH]c6ccccc56)C(=O)N[C@@H](Cc5c[nH]c6ccccc56)C(=O)N[C@@H](C)C(=O)N[C@@H](Cc5ccc(O)cc5)C(=O)N[C@@H](Cc5c[nH]c6ccccc56)C(=O)N5CCC[C@H]5C(=O)N5CCC[C@H]5C(=O)N[C@H](C(N)=O)C(C)C)CC[C@]4(C)[C@H]3CC[C@]12C [Compound 11, R = BEEXUUUWWAYWPPV-CONH2] ({Pentanoyl(5-NH-cholesteryl)-βAla}-EE[Ahx][Aib][Aib][Aib]WWAYWPPV-NH2) |  |  | 0.8 µM | 15 µM |  |
| CC(C)CCC[C@@H](C)[C@H]1CC[C@H]2[C@@H]3CC=C4C[C@@H](NCCCCC(=O)NCCC(=O)N[C@@H](CCC(=O)O)C(=O)N[C@@H](CCC(=O)O)C(=O)NCCCCCC(=O)NCCCCCC(=O)NC(C)(C)C(=O)NC(C)(C)C(=O)NC(C)(C)C(=O)NC(C)(C)C(=O)N[C@@H](Cc5ccc(O)cc5)C(=O)N[C@@H](Cc5ccc(O)cc5)C(=O)N[C@@H](Cc5ccc(O)cc5)C(=O)N[C@@H](Cc5ccc(O)cc5)C(=O)N[C@@H](Cc5ccc(O)cc5)C(=O)N5CCC[C@H]5C(=O)N5CCC[C@H]5C(=O)N[C@H](C(=O)N[C@@H](C)C(N)=O)C(C)C)CC[C@]4(C)[C@H]3CC[C@]12C [Compound 24, R = BEEXXUUUUYYYYYPPVA-CONH2] ({Pentanoyl(5-NH-cholesteryl)-βAla}-EE[Ahx][Ahx][Aib][Aib][Aib][Aib]YYYYYPPVA-NH2) |  |  | 0.09 µM | 5 µM |  |
| CC(C)CCC[C@@H](C)[C@H]1CC[C@H]2[C@@H]3CC=C4C[C@@H](NCCCCC(=O)NCCC(=O)N[C@@H](CCC(=O)O)C(=O)N[C@@H](CCC(=O)O)C(=O)NCCCCCC(=O)NC(C)(C)C(=O)NC(C)(C)C(=O)NC(C)(C)C(=O)N[C@@H](Cc5c[nH]c6ccccc56)C(=O)N[C@@H](C)C(=O)N[C@@H](C)C(=O)N[C@@H](Cc5ccc(O)cc5)C(=O)N[C@@H](Cc5c[nH]c6ccccc56)C(=O)N5CCC[C@H]5C(=O)N5CCC[C@H]5C(=O)N[C@H](C(=O)N[C@@H](C)C(N)=O)C(C)C)CC[C@]4(C)[C@H]3CC[C@]12C [Compound 13, R = BEEXUUUWAAYWPPVA-CONH2] ({Pentanoyl(5-NH-cholesteryl)-βAla}-EE[Ahx][Aib][Aib][Aib]WAAYWPPVA-NH2) |  |  | 0.7 µM | 16 µM |  |
